Laboratory results taken from patent publication US7410976B2, “Spirochromanone derivatives” (Merck & Co., Inc., priority 2005, dated 2008).
Where a name gives a salt, the structure may show the parent alone.

Key:
human ACC2 = human ACC2 (Homo sapiens, UniProt O00763); experiment: Acetyl CoA carboxylase (ACC) activity inhibition test, human ACC2; type: biochemical; conditions: 1 μmol/liter compound; control: DMSO well without test compound; read-out: Inhibition (%) by 1 μmol/liter Chemical, human ACC2
human ACC2, sequence (O00763 whole entry): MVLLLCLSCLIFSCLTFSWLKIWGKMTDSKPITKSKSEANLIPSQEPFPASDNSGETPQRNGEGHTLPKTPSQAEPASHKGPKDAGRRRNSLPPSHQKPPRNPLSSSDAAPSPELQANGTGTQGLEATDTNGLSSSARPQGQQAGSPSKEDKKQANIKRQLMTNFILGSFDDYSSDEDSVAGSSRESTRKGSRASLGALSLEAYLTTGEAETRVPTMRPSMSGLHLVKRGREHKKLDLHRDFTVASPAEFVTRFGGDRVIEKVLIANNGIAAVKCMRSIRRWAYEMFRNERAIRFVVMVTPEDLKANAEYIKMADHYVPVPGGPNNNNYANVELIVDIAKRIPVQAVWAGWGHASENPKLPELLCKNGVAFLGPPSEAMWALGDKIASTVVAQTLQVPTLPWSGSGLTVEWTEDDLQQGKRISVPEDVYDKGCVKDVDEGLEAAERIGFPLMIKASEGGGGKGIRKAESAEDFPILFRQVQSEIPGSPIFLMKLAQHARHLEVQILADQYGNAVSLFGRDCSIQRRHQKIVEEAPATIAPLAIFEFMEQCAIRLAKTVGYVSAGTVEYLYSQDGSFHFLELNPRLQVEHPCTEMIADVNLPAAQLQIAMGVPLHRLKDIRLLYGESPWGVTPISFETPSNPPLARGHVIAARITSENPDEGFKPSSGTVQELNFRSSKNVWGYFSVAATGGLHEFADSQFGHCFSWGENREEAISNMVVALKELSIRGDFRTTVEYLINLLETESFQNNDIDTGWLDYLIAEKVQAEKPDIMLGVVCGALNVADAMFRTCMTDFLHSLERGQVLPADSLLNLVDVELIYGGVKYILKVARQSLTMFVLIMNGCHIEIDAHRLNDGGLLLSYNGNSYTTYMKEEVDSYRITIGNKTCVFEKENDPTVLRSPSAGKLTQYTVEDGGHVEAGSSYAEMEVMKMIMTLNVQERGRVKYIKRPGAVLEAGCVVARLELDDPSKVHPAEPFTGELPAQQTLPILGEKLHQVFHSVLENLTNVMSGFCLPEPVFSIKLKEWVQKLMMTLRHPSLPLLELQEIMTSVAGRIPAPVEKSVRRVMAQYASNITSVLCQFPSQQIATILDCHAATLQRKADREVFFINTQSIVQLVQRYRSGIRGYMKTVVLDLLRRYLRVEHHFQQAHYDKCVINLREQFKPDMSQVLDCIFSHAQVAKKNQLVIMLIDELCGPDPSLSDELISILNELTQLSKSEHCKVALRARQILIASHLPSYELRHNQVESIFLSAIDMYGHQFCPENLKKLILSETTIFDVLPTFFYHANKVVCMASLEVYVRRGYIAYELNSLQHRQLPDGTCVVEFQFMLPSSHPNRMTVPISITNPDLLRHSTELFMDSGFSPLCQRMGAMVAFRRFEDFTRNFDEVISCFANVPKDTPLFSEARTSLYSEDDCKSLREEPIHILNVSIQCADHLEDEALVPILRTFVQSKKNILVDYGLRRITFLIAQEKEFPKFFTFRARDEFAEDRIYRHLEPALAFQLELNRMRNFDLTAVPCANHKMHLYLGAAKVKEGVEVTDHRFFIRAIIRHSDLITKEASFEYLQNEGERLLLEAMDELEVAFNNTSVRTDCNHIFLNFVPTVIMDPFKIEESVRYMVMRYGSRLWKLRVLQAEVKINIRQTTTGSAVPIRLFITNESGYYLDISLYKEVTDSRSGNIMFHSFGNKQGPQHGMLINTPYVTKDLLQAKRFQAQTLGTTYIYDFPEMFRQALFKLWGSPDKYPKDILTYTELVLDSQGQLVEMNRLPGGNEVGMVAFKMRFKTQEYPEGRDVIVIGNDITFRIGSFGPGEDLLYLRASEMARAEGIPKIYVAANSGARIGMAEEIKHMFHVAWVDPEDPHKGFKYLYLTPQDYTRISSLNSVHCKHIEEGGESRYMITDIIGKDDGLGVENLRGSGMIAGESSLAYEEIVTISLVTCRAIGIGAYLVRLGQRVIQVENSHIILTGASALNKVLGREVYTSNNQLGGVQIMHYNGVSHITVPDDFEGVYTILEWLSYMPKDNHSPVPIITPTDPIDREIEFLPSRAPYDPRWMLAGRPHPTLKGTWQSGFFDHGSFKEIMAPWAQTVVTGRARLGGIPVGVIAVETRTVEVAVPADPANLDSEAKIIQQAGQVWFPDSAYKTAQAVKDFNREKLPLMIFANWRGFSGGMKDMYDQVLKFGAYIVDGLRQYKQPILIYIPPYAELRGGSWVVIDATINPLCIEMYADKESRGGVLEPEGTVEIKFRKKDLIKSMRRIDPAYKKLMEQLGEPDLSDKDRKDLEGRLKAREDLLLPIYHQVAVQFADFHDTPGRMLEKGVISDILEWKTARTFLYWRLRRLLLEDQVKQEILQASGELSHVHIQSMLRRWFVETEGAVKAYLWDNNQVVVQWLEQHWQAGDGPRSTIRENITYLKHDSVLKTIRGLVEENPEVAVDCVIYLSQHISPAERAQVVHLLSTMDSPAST
Experimental: (§1) A. Pharmacological Test Example (Acetyl CoA Carboxylase (ACC) Activity Inhibition Test)
(§2) Concretely, 0.8 μl of the diluted test compound is added to each well of 96-well assay plate (Perkin Elmer Opti Plate), then 40 μl of a substrate solution (50 mM Hepes sodium (pH 7.5), 2 mM DTT, 10 mM ATP, 500 μM acetyl CoA, 0.17 mM NaH[^14C]O3 (58 mCi/mmol, by Amersham), 8 mM NaHCO3) is added to each well, and 40 μL of an enzyme solution (1 to 2 nM human ACC1 or human ACC2, 50 mM Hepes sodium (pH 7.5), 2 mM DTT, 40 mM MgCl2, 40 mM tripotassium citrate 1 mg/ml fetal bovine serum albumin) is added thereto. Then, the upper side of the plate is sealed up, and the plate is incubated with gently stirring at 37° C. for 40 minutes. Next, 20 μl of 1N HCl is added to each well to stop the enzyme reaction, and the assay plate is stirred overnight to remove the unreacted NaH[^14C]O3. Next, 100 μl of a scintillator (Perkin Elmer's Microscinti 40) is added to each well and the plate is stirred, then the radioactivity of the fixed [^14C] is counted using a microplate scintillation counter (Perlin Elmer's Topcount), the radioactivity of which represents the enzyme activity in each well. The human ACC1 and human ACC2 enzyme-inhibition activities of the test compounds are calculated, based on the radioactivity of the well added by DMSO without test compound as a control.

human ACC1 = human ACC1 (Homo sapiens, UniProt Q13085); experiment: Acetyl CoA carboxylase (ACC) activity inhibition test, human ACC1; type: biochemical; conditions: 1 μmol/liter compound; control: DMSO well without test compound; read-out: Inhibition (%) by 1 μmol/liter Chemical, human ACC1
Experimental: as §1, §2

Row | Compound | inhibition at 1 µM (human ACC2) [%] | inhibition at 1 µM (human ACC1) [%]
1 | COc1cc(C(=O)N2CCC3(CC2)CC(=O)c2cc(NC(C)=O)ccc2O3)nc2ccccc12 [Example 2, N-{1′-[(4-methoxyquinolin-2-yl)carbonyl]-4-oxospiro[chroman-2,4′-piperidin]-6-yl}acetamide hydrochloride] | 85 | 82
2 | COc1cc(C(=O)N2CCC3(CC2)CC(=O)c2ccccc2O3)nc2c(OC)cccc12 [Example 4, 1′-[(4,8-dimethoxyquinolin-2-yl)carbonyl]spiro[chroman-2,4′-piperidin]-4-one] | 96 | 93
3 | COc1cc(C(=O)N2CCC3(CC2)CC(=O)c2cc(Nc4ccnn4C)ccc2O3)nc2c(OC)cccc12 [Example 10, 1′-[(4,8-dimethoxyquinolin-2-yl)carbonyl]-6-[(1-methyl-1H-pyrazol-5-yl)amino]spiro[chroman-2,4′-piperidin]-4-one] | 99 | 100
4 | COc1cc(C(=O)N2CCC3(CC2)CC(=O)c2cc(-c4nnn[nH]4)ccc2O3)nc2c(OC)cccc12 [Example 18, 1′-[(4,8-dimethoxyquinolin-2-yl)carbonyl]-6-(1H-tetrazol-5-yl)spiro[chroman-2,4′-piperidin]-4-one sodium salt] | 99 | 97

The remaining lines, values ahead:

Row | inhibition at 1 µM (human ACC2) [%] | inhibition at 1 µM (human ACC1) [%] | Compound
5 | 98 | 100 | COc1cc(C(=O)N2CCC3(CC2)CC(=O)c2cc(NC(C)=O)ccc2O3)nc2c(OC)cccc12 [Example 3, N-{1′-[(4,8-dimethoxyquinolin-2-yl)carbonyl]-4-oxospiro[chroman-2,4′-piperidin]-6-yl}acetamide]
6 | 97 | 97 | COc1cc(C(=O)N2CCC3(CC2)CC(=O)c2cc(N)ccc2O3)nc2c(OC)cccc12 [Example 5, 6-amino-1′-[(4,8-dimethoxyquinolin-2-yl)carbonyl]spiro[chroman-2,4′-piperidin]-4-one]
7 | 97 | 99 | CCOc1cc(C(=O)N2CCC3(CC2)CC(=O)c2cc(-c4nnn[nH]4)ccc2O3)nc2c(C3CC3)nccc12 [Example 21, 1′-[(8-cyclopropyl-4-ethoxy-1.7-naphthyridin-2-yl)carbonyl]-6-(1H-tetrazol-5-yl)spiro[chroman-2,4′-piperidin]-4-one]
8 | 100 | 101 | COc1cc(C(=O)N2CCC3(CC2)CC(=O)c2cc(-c4nc[nH]n4)ccc2O3)nc2c(OC)cccc12 [Example 27, 1′-[(4,8-dimethoxyquinolin-2-yl)carbonyl]-6-(1H-1,2,4-triazol-3-yl)-spiro[chroman-2,4′-piperidin]-4-one]
